Laboratory results as given in PMC4447944 (The Journal of Biological Chemistry, 2015).

What was measured:
hCDKL5 = target: T1, hCDKL5 (Homo sapiens, UniProt O76039); assay: KINOMEscan; format: binding
T1 construct: purchased DiscoverX

hTNIK = target: T2, hTNIK (Homo sapiens, UniProt Q9UKE5); assay: KINOMEscan; format: binding
T2 construct: purchased DiscoverX

hULK3 = target: T3, hULK3 (Homo sapiens, UniProt Q6PHR2); assay: KINOMEscan; format: binding
T3 construct: purchased DiscoverX

hVRK2 = target: T4, hVRK2 (Homo sapiens, UniProt Q86Y07); assay: KINOMEscan; format: binding
T4 construct: purchased DiscoverX
T4 sequence (Q86Y07 whole entry): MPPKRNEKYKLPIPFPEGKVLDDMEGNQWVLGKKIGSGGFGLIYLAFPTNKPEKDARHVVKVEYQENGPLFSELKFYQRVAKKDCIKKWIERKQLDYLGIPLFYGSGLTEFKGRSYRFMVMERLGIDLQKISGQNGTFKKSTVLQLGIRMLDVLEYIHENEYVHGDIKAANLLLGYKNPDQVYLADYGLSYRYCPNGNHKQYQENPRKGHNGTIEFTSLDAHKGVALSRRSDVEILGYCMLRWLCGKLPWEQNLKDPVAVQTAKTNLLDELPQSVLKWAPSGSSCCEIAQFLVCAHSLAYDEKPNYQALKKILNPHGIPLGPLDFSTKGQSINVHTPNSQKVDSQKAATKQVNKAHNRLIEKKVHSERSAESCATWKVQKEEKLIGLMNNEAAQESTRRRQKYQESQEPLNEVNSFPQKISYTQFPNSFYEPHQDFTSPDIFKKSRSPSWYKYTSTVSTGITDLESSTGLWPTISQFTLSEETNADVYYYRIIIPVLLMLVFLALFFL

hYES = target: T5, hYES (Homo sapiens, UniProt P07947); assay: KINOMEscan; format: binding
T5 construct: purchased DiscoverX
T5 sequence (P07947 whole entry): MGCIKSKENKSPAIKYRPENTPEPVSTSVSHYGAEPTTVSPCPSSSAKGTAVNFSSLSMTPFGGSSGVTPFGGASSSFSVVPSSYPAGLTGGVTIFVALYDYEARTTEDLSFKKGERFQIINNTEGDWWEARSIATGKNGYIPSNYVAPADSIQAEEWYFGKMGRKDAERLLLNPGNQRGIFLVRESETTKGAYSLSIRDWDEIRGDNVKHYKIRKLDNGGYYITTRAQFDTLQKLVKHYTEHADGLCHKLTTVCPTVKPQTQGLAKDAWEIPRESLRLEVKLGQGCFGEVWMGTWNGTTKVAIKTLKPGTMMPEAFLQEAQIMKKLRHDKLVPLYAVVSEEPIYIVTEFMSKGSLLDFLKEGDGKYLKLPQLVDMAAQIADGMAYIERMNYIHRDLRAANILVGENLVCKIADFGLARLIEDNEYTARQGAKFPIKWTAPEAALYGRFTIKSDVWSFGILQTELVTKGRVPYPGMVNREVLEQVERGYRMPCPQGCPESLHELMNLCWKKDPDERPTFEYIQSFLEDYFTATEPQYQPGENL

hADRβ1 = hADRβ1 (Homo sapiens, UniProt P08588); assay: cAMP Potentiation (Eurofins-CEREP); settings: @ 10 μM
Chain of hADRβ1 (P08588 whole entry): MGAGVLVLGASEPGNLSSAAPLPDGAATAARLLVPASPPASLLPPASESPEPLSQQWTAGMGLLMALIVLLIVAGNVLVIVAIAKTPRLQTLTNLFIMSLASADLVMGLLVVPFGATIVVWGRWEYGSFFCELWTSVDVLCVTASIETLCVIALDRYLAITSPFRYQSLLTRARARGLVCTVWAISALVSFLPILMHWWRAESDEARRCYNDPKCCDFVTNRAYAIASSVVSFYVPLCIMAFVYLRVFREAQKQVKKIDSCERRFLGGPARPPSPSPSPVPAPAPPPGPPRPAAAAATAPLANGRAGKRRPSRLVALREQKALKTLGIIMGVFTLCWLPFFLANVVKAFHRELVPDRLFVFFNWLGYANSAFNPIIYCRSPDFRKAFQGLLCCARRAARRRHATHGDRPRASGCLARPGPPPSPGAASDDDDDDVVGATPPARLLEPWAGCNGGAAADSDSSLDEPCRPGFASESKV

T2 sequence (Q9UKE5 whole entry): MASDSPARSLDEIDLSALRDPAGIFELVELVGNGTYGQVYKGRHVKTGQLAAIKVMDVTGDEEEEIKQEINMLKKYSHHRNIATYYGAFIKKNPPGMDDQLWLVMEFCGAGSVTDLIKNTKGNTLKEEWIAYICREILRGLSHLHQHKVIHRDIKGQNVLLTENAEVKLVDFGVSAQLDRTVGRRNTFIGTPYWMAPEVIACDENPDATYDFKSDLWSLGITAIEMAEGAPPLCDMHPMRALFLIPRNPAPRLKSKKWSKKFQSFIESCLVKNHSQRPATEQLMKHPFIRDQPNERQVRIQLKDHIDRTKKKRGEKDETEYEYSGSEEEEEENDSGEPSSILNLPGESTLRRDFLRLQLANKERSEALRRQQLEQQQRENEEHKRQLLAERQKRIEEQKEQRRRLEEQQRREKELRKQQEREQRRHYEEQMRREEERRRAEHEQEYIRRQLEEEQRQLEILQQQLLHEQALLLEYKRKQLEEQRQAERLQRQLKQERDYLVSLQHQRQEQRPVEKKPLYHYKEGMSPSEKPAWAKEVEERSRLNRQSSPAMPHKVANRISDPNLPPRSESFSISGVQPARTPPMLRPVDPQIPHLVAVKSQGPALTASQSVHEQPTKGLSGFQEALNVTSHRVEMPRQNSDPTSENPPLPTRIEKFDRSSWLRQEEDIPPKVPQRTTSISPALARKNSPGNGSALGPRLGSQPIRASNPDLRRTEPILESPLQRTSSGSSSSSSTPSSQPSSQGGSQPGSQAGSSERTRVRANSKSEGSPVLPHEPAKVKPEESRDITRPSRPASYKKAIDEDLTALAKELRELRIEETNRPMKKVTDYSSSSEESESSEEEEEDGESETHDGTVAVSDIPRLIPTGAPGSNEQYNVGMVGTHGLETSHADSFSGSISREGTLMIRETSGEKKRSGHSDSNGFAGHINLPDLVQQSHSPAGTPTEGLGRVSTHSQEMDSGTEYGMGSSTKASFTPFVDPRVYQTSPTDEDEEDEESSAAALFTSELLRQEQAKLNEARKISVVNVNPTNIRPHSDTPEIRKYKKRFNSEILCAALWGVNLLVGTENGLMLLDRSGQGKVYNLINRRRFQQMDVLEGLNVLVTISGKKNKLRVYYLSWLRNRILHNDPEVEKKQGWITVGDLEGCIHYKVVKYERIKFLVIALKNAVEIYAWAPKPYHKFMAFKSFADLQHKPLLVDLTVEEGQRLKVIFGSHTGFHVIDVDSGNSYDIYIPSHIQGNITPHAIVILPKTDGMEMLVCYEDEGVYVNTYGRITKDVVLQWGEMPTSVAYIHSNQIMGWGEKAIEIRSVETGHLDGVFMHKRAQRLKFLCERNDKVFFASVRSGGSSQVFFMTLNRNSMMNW
T3 sequence (Q6PHR2 whole entry): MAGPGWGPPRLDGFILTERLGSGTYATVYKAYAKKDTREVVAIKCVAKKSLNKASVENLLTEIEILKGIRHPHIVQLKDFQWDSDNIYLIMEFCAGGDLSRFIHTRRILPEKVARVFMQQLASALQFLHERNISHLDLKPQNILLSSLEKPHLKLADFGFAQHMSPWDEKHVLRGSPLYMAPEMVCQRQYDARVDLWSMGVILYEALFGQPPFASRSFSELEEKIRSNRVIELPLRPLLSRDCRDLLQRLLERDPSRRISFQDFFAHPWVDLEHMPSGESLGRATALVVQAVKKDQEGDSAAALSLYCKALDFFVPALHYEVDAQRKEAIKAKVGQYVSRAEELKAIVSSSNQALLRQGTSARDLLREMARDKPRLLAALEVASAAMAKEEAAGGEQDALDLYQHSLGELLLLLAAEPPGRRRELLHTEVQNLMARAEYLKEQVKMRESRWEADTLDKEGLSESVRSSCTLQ
T1 sequence (O76039 whole entry): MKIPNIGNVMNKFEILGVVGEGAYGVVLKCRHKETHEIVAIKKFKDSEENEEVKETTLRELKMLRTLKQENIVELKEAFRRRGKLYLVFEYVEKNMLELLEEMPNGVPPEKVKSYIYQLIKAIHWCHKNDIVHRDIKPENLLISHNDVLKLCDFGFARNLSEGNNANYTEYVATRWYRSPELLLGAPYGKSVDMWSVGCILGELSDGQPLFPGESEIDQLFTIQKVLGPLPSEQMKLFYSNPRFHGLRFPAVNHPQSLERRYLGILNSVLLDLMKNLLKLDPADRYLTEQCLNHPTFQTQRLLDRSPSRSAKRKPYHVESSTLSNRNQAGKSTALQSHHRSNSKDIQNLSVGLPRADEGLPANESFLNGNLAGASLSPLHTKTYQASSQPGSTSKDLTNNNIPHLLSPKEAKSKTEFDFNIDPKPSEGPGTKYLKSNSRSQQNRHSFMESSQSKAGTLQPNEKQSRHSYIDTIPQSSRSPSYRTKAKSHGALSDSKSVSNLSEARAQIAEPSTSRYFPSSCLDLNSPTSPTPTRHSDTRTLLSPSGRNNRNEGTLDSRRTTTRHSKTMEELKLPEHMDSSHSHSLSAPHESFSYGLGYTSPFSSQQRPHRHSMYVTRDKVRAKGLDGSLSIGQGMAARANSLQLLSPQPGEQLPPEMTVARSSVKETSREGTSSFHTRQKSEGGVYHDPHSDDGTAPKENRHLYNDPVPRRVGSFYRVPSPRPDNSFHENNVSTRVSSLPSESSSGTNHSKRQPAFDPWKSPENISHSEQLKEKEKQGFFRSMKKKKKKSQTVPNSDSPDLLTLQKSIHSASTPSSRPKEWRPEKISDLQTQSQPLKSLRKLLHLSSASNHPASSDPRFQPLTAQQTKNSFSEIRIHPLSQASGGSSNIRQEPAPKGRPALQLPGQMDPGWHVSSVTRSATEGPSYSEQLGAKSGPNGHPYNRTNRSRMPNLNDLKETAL

Which results are given for `Cc1cn(CCN2CCN(c3ccccc3-c3cc(C#N)cc(C(=O)NCCCN4CCCC4)c3)CC2)c2ccccc12` [LLY-507, 3-cyano-5-{2-[4-[2-(3-methylindol-1-yl)ethyl]piperazin-1-yl]-phenyl}-N-[(3-pyrrolidin-1-yl)propyl]benzamide]?
IC50 (hCDKL5): > 20 µM; IC50 (hTNIK): > 20 µM; IC50 (hULK3): > 20 µM; IC50 (hVRK2): > 20 µM; IC50 (hYES): > 20 µM; % Effect, Potentiation (hADRβ1): 32.1%
